According to ChEMBL document CHEMBL5154823, “Amphiphilic cyclic peptide [W4KR5]-Antibiotics combinations as broad-spectrum antimicrobial agents” (Eur J Med Chem, 2022):
Activity calls are given as the source filed them. The calls are words filed in the database; no cut-off is given here. Where a SMILES comes first, the peptide text is derived from it. Bridges are numbered along the chain shown (N, C = ends). [ ]: non-standard residue; d: D form. The star is where a group is joined. X1 = C[C@H](O)[C@H]1C(=O)N2C(C(=O)*)=C(S[C@@H]3CN[C@H](C(=O)N(C)C)C3)[C@@H](C)[C@H]12; X2 = CC[C@H](C)CCCCC(=O)*; Dab = NCC[C@H](N)C(=O)O

Tests used:
[1] = test system: Pseudomonas aeruginosa; experiment: Antibacterial activity against Pseudomonas aeruginosa ATCC 27883 assessed as reduction in microbial growth incubated for 24 hrs by microbroth dilution method; assay type: functional
[2] = test system: Escherichia coli; experiment: Antibacterial activity against Escherichia coli ATCC 25922 assessed as reduction in microbial growth incubated for 24 hrs by microbroth dilution method; assay type: functional
[3] = test system: Klebsiella pneumoniae; experiment: Antibacterial activity against imipenem resistant Klebsiella pneumoniae ATCC BAA 1705 assessed as reduction in microbial growth incubated for 24 hrs by microbroth dilution method; assay type: functional
[4] = test system: Staphylococcus aureus; experiment: Antibacterial activity against Methicillin resistant Staphylococcus aureus ATCC BAA -1556 assessed as reduction in microbial growth incubated for 24 hrs by microbroth dilution method; assay type: functional
[5] = test system: HepaRG; experiment: Cytotoxicity against human HepaRG cells assessed as assessed as reduction in cell viability at 10 ug/ml incubated for 24 hrs by microplate reader analysis; assay type: toxicity, cell-based; conditions: dose 10 µg/ml
[6] = test system: Klebsiella pneumoniae; experiment: Antibacterial activity against Klebsiella pneumoniae ATCC 13883 assessed as reduction in microbial growth incubated for 24 hrs by microbroth dilution method; assay type: functional
[7] = test system: Cell membrane; experiment: Induction of membrane disruption in Staphylococcus aureus ATCC BAA -1556 assessed as increase in PI positive cells at 4 times of MIC incubated for 2 hrs by Propidium iodide staining based FACS cytometry analysis relative to control; assay type: subcellular
[8] = Hemolytic activity in human Red blood cell incubated for 2 hrs by spectrophotometric analysis; assay type: toxicity, cell-based, Erythrocyte; conditions: red blood cells (erythrocytes)
[9] = test system: Pseudomonas aeruginosa; experiment: Antibacterial activity against carbapenem resistant Pseudomonas aeruginosa ATCC BAA 1744 assessed as reduction in microbial growth incubated for 24 hrs by microbroth dilution method; assay type: functional
[10] = test system: Cell membrane; experiment: Induction of membrane disruption in Pseudomonas aeruginosa ATCC BAA 1744 assessed as increase in PI positive cells at 4 times of MIC incubated for 2 hrs by Propidium iodide staining based FACS cytometry analysis relative to control; assay type: subcellular
[11] = test system: HEK293; experiment: Cytotoxicity against HEK293 cells assessed as effect on cell viability at 10 ug/ml incubated for 24 hrs by microplate reader analysis; assay type: toxicity, cell-based; conditions: human, hek293, 24 h, dose 10 µg/ml
[12] = test system: HepaRG; experiment: Cytotoxicity against human HepaRG cells assessed as assessed as reduction in cell viability at 50 to 150 ug/ml incubated for 24 hrs by microplate reader analysis relative to control; assay type: toxicity, cell-based; conditions: at 50 to 150 µg/mL, dose 50-150 µg/ml
[13] = test system: Staphylococcus aureus; experiment: Antibacterial activity against Staphylococcus aureus ATCC 29213 assessed as reduction in microbial growth incubated for 24 hrs by microbroth dilution method; assay type: functional
[14] = test system: Escherichia coli; experiment: Antibacterial activity against carbapenem and NDM-1 positive resistant Escherichia coli ATCC BAA 2452 assessed as reduction in microbial growth incubated for 24 hrs by microbroth dilution method; assay type: functional
[15] = Cytotoxicity against HEK293 cells assessed as effect on cell viability at 10 to 25 ug/ml incubated for 24 hrs by microplate reader analysis relative to control; assay type: toxicity, cell-based; conditions: human, at 10 to 25 µg/mL, dose 10-25 µg/ml, read-out: Activity
[16] = test system: Cell membrane; experiment: Induction of membrane disruption in Pseudomonas aeruginosa ATCC BAA 1744 assessed as increase in PI positive cells at MIC incubated for 2 hrs by Propidium iodide staining based FACS cytometry analysis relative to control
[17] = test system: HEK293; experiment: Cytotoxicity against HEK293 cells assessed as effect on cell viability at 10 to 200 ug/ml incubated for 24 hrs by microplate reader analysis; assay type: toxicity, cell-based; conditions: human, hek293, 24 h, dose 10-200 µg/ml
[18] = test system: Cell membrane; experiment: Induction of membrane disruption in Staphylococcus aureus ATCC BAA -1556 assessed as increase in PI positive cells at MIC incubated for 2 hrs by Propidium iodide staining based FACS cytometry analysis relative to control
[19] = test system: Pseudomonas aeruginosa; experiment: Bactericidal activity against Pseudomonas aeruginosa ATCC BAA 1744 assessed as decrease of bacterial growth at MIC measured after 24 hrs by Time kill assay; assay type: functional, organism-based
[20] = test system: Escherichia coli; experiment: Bactericidal activity against Escherichia coli ATCC BAA 2452 assessed as decrease of bacterial growth at MIC measured after 15 hrs by Time kill assay; assay type: functional, organism-based
[21] = test system: Staphylococcus aureus; experiment: Bactericidal activity against methicillin resistant Staphylococcus aureus ATCC BAA 1556 assessed as reduction in bacterial growth at MIC measured after 16 hrs by Time kill assay; assay type: functional, organism-based

Structure (SMILES) | MIC [1] [µg/mL] | MIC [2] [µg/mL] | MIC [3] [µg/mL] | MIC [4] [µg/mL] | further results
CCCCCCCCCC(=O)N[C@@H](Cc1c[nH]c2ccccc12)C(=O)N[C@H](CC(N)=O)C(=O)N[C@@H](CC(=O)O)C(=O)N[C@@H]1C(=O)NCC(=O)N[C@@H](CCCN)C(=O)N[C@@H](CC(=O)O)C(=O)N[C@H](C)C(=O)N[C@@H](CC(=O)O)C(=O)NCC(=O)N[C@H](CO)C(=O)N[C@@H]([C@H](C)CC(=O)O)C(=O)N[C@@H](CC(=O)c2ccccc2N)C(=O)O[C@@H]1C | > 128 | > 128 | 256 | – | –
CC[C@H](C)CCCCC(=O)N[C@@H](CCN)C(=O)N[C@H](C(=O)N[C@@H](CCN)C(=O)N[C@H]1CCNC(=O)[C@H]([C@@H](C)O)NC(=O)[C@H](CCN)NC(=O)[C@H](CCN)NC(=O)[C@H](CC(C)C)NC(=O)[C@@H](Cc2ccccc2)NC(=O)[C@H](CCN)NC1=O)[C@@H](C)O (X2-[Dab]T[Dab][Dab][Dab][dF]L[Dab][Dab]T; lactam 4-C) | 1 | 2 | 1 | 64 | –
C[C@H](O)[C@H]1C(=O)N2C(C(=O)NCCCC[C@@H]3NC(=O)[C@H](CCCNC(=N)N)NC(=O)[C@H](CCCNC(=N)N)NC(=O)[C@H](CCCNC(=N)N)NC(=O)[C@H](CCCNC(=N)N)NC(=O)[C@H](CCCNC(=N)N)NC(=O)[C@H](Cc4c[nH]c5ccccc45)NC(=O)[C@H](Cc4c[nH]c5ccccc45)NC(=O)[C@H](Cc4c[nH]c5ccccc45)NC(=O)[C@H](Cc4c[nH]c5ccccc45)NC3=O)=C(S[C@@H]3CN[C@H](C(=O)N(C)C)C3)[C@@H](C)[C@H]12 (cyclo(K(X1)WWWWRRRRR)) | 16 | 4 | 16 | 4 | Activity [5]: Non-Toxic; MIC [6]: 4 µg/mL; Activity [7]: 29.6%; HC50 at 2 h [8]: 255 µg/mL; MIC [9]: 16 µg/mL; Activity [10]: 26.4%; Activity [11]: Non-Toxic; Activity [12]: 69%; MIC [13]: 2 µg/mL; MIC [14]: 8 µg/mL; viability at 24 h [15]: 90%
O=C(O)c1cn(C2CC2)c2cc(N3CCNCC3)c(F)cc2c1=O [CIPROFLOXACIN] | – | 64 | – | – | –
CCC[C@@H]1C[C@@H](C(=O)N[C@@H]([C@H]2O[C@H](SC)[C@H](O)[C@@H](O)[C@H]2O)[C@H](C)Cl)N(C)C1 [CLINDAMYCIN] | > 128 | – | 256 | – | –
NC[C@H]1O[C@H](O[C@H]2[C@H](O)[C@@H](O[C@H]3O[C@H](CO)[C@@H](O)[C@H](N)[C@H]3O)[C@H](N)C[C@@H]2N)[C@H](O)[C@@H](O)[C@@H]1O [KANAMYCIN] | > 128 | 32 | 64 | > 128 | –
C[C@H]1COc2c(N3CCN(C)CC3)c(F)cc3c(=O)c(C(=O)O)cn1c23.C[C@H]1COc2c(N3CCN(C)CC3)c(F)cc3c(=O)c(C(=O)O)cn1c23.O [LEVOFLOXACIN] | – | 64 | 64 | > 128 | –
C[C@@H](O)[C@H]1C(=O)N2C(C(=O)O)=C(S[C@@H]3CN[C@H](C(=O)N(C)C)C3)[C@H](C)[C@H]12 [MEROPENEM] | 1 | 1 | – | 2 | Activity [5]: Non-Toxic; MIC [6]: 1 µg/mL; Activity [16]: 14.7%; Activity [17]: Non-Toxic; Activity [7]: 17.2%; Activity [18]: 12.2%; HC50 at 2 h [8]: > 500 µg/mL; Activity [19]: Active; MIC [9]: 8 µg/mL; Activity [20]: Active; Activity [10]: 22.1%; Activity [11]: Non-Toxic; MIC [13]: 2 µg/mL; Activity [21]: Active
CN(C)[C@@H]1C(O)=C(C(N)=O)C(=O)[C@@]2(O)C(O)=C3C(=O)c4c(O)cccc4[C@@](C)(O)[C@H]3C[C@@H]12 [TETRACYCLINE] | 32 | 8 | 16 | 0.25 | –
NC[C@H]1O[C@H](O[C@H]2[C@H](O)[C@@H](O[C@H]3O[C@H](CO)[C@@H](O)[C@H](N)[C@H]3O)[C@H](N)C[C@@H]2N)[C@H](N)C[C@@H]1O [TOBRAMYCIN] | 0.5 | 8 | 16 | 0.5 | –
CN[C@H](CC(C)C)C(=O)N[C@H]1C(=O)N[C@@H](CC(N)=O)C(=O)N[C@H]2C(=O)N[C@H]3C(=O)N[C@H](C(=O)N[C@H](C(=O)O)c4cc(O)cc(O)c4-c4cc3ccc4O)[C@H](O)c3ccc(c(Cl)c3)Oc3cc2cc(c3O[C@@H]2O[C@H](CO)[C@@H](O)[C@H](O)[C@H]2O[C@H]2C[C@](C)(N)[C@H](O)[C@H](C)O2)Oc2ccc(cc2Cl)[C@H]1O [VANCOMYCIN] | 256 | 256 | 256 | – | –
